# Experimental data published in EP3521435A1, “A HIGH STRINGENCY SELECTION SYSTEM FOR PROTEIN EXPRESSION IN PROLINE-AUXOTROPHIC CELLS” (Bayer AG, priority 2018, dated 2019).
# Key:
# CHO-K1 cells [1] = assay: Cell viability post-transfection of transfected cell populations under selection conditions; format: cell-based, Chinese hamster
# Procedure: (§1) To efficiently test the impact of different procedures on improving selection stringency, experimental testing in stable cell populations was performed. As test molecules, enhanced green fluorescent protein (GFP) as well as a human IgG1 were chosen. CHO-K1 cells adapted to growth in suspension in defined medium were obtained from SAFC and cultivated in EX-CELL CD CHO Fusion medium (SAFC 14365C). Custom-made EX-CELL CD CHO Fusion medium without L-Proline (Pro) and without L-Ornithine (Orn) ("proline-free medium") was obtained from SAFC. The expression vector system was based on modified versions of "CET 1019 AS-puro-SceI" and "CET 1019 AD-puro-SceI" for GFP and human IgG1, respectively, from Merck-Millipore, containing the Puromycin selection marker (Puromycin N-acetyl-transferase) known to exert a high selection stringency. To minimize variations in cell populations derived from using different transfections or different vectors, the first series of experiments were conducted using vectors into which a P5CS expression cassette was cloned upstream of a UCOE element, in addition to the Puromycin selection marker present downstream of a gene of interest. This way, it was possible to pool different transfections using the same vector to obtain a common starting point, and split the mixture according to different selection conditions, minimizing any variations that are not due to selection conditions themselves. Expression of long and short isoform of murine P5CS (Protein: Delta-1-pyrroline-5-carboxylate synthase; Gene: Aldh18a1; UniProtKB accession number: Q9Z110-1 & Q9Z110-2) was driven by a SV40 promoter. A SV40 polyadenylation sequence was used at the 3' end of the gene. More details can be found in Table 1. Typically, CHO cells were cultivated in EX-CELL CD CHO Fusion medium containing 6 mM GlutaMAX (Thermo Fisher, 35050-38) ("CD-Fusion medium") at 37 °C with 5% CO2. Cells were grown to logarithmic phase under shaking conditions for transfections. 1e7 cells/cuvette were transfected using nucleofection (Amaxa Nucleofector II, following the manufacturer's recommendations) with 5 µg of linearized DNA. After transfection, cells were taken up in 1 ml medium and transferred into 1 well of a 6 well microtiter plate (MTP) already containing 1 ml medium. The cells were incubated for 24 h without shaking, after which 9 ml medium were added and cells were washed (either in standard or proline-free medium). Multiple transfections were pooled, if applicable. Cells were adjusted to 2e5 viable cells/ml and 10 ml were transferred to T-25 flasks. Reference cell populations were selected using 10 µg/ml Puromycin in CD-Fusion medium. For P5CS-based selection, EX-CELL CD CHO Fusion medium (custom-made, SAFC) containing 6 mM GlutaMAX without proline and without ornithine was used ("proline-free" or "CD-Fusion w/o Pro" medium), with or without additional selection pressure.
# (§2) Cell viability of the different populations was monitored over time. As soon as cell populations appeared to recover from selection pressure, cells were transferred to Shake Flask or TubeSpins for expansion in suspension under shaking conditions. Subsequently, stable cell populations transfected with IgG were seeded at 2e5 viable cells/ml for batch fermentation without selection pressure (i.e. standard CD-Fusion medium containing proline and no other selective agents). The cells were cultivated for 5-10 days, viable cell densities and productivity were monitored over time. IgG titers were determined using Poros A-HPLC method. Typically, final batch titers were recorded at a time point at which majority of cultures had around 70% viability. Stable cell populations transfected with GFP vector were subjected to analysis by flow cytometry using Guava easyCyte 8HT Benchtop Flow Cytometer (Millipore). 250 µl of cell culture were transferred to 96 MTP and washed with PBS. Dead cells were excluded from analysis using propidium iodide (PI). […]
# CHO-K1 cells [2] = assay: Batch fermentation in shake flasks of human IgG1 expressing stable cell populations (Poros A-HPLC titer, viable cell density, viability); format: cell-based, Chinese hamster; conditions: for Productivity profile / Batch titer day 7: human IgG1
# Procedure: as §1, §2
# [3] = MOCK, CD Fusion + 10 µg/ml Puromycin
# [4] = MOCK, CD-Fusion w/o Pro + 10 µg/ml Puromycin
# [5] = MOCK, CD-Fusion w/o Pro + 0.25 mM Pro + 10 µg/ml Puromycin
# [6] = pJF1555, CD-Fusion w/o Pro + 0.25 mM Pro + 10 µg/ml Puromycin
# [7] = pJF1576, CD-Fusion + 10 µg/ml Puromycin
# [8] = pJF2053, CD-Fusion + 10 µg/ml Puromycin
# [9] = Day 2 after inoculation, pJF1576, selected in CD Fusion + 10 µg/ml Puromycin, non-selecting conditions
# [10] = Day 2 after inoculation, pJF1576, selected in CD-Fusion w/o Pro + 0.25 mM Pro + 10 µg/ml Puromycin, non-selecting conditions
# [11] = Day 3 after inoculation, pJF1576, selected in CD Fusion + 10 µg/ml Puromycin, selective conditions
# [12] = Day 4 after inoculation, pJF1576, selected in CD Fusion + 10 µg/ml Puromycin, non-selecting conditions
# [13] = Day 4 after inoculation, pJF1576, selected in CD-Fusion w/o Pro + 0.25 mM Pro + 10 µg/ml Puromycin, non-selecting conditions
# [14] = Day 5 after inoculation, pJF1576, selected in CD Fusion + 10 µg/ml Puromycin, selective conditions
# [15] = Day 7 after inoculation, pJF1576, selected in CD Fusion + 10 µg/ml Puromycin, non-selecting conditions
# [16] = Day 7 after inoculation, pJF1576, selected in CD Fusion + 10 µg/ml Puromycin, selective conditions
# [17] = Day 7 after inoculation, pJF1576, selected in CD-Fusion w/o Pro + 0.25 mM Pro + 10 µg/ml Puromycin, non-selecting conditions
# [18] = Day 9 after inoculation, pJF1576, selected in CD Fusion + 10 µg/ml Puromycin, non-selecting conditions
# [19] = Day 9 after inoculation, pJF1576, selected in CD-Fusion w/o Pro + 0.25 mM Pro + 10 µg/ml Puromycin, non-selecting conditions
structure (smiles),measurement,setting,value
COc1ccc(C[C@H](N)C(=O)N[C@H]2[C@@H](O)[C@H](n3cnc4c(N(C)C)ncnc43)O[C@@H]2CO)cc1 [Puromycin],Viability on day 12 post-transfection,CHO-K1 cells [1]; [3],25%
same,Viability on day 13 post-transfection,CHO-K1 cells [1]; [3],9%
same,Viability on day 14 post-transfection,CHO-K1 cells [1]; [3],19%
same,Viability on day 13 post-transfection,CHO-K1 cells [1]; [4],14%
same,Viability on day 14 post-transfection,CHO-K1 cells [1]; [4],23%
same,Viability on day 12 post-transfection,CHO-K1 cells [1]; [5],23%
same,Viability on day 13 post-transfection,CHO-K1 cells [1]; [5],13%
same,Viability on day 14 post-transfection,CHO-K1 cells [1]; [5],20%
same,Viability on day 12 post-transfection,"CHO-K1 cells [1]; Table 8, pJF1555, CD-Fusion w/o Pro + 0.25 mM Pro + 10 µg/ml Puromycin",83%
same,Viability on day 12 post-transfection,"CHO-K1 cells [1]; Table 12, pJF1555, CD-Fusion + 10 µg/ml Puromycin",86%
same,Viability on day 12 post-transfection,"CHO-K1 cells [1]; Table 12, pJF1555, CD-Fusion w/o Pro + 0.25 mM Pro + 10 µg/ml Puromycin",63%
same,Viability on day 14 post-transfection,"CHO-K1 cells [1]; pJF1555, CD Fusion + 10 µg/ml Puromycin",75%
same,Viability on day 19 post-transfection,"CHO-K1 cells [1]; pJF1555, CD-Fusion + 10 µg/ml Puromycin",49%
same,Viability on day 14 post-transfection,"CHO-K1 cells [1]; pJF1555, CD-Fusion w/o Pro + 10 µg/ml Puromycin",79%
same,Viability on day 14 post-transfection,CHO-K1 cells [1]; [6],79%
same,Viability on day 19 post-transfection,CHO-K1 cells [1]; [6],48%
same,Viability on day 13 post-transfection,"CHO-K1 cells [1]; pJF1556, CD Fusion + 10 µg/ml Puromycin",81%
same,Viability on day 13 post-transfection,"CHO-K1 cells [1]; pJF1556, CD-Fusion w/o Pro + 10 µg/ml Puromycin",92%
same,Viability on day 13 post-transfection,"CHO-K1 cells [1]; pJF1556, CD-Fusion w/o Pro + 0.25 mM Pro + 10 µg/ml Puromycin",90%
same,Viability on day 12 post-transfection,CHO-K1 cells [1]; [7],78%
same,Viability on day 21 post-transfection,CHO-K1 cells [1]; [7],98.4%
same,Viability on day 12 post-transfection,"CHO-K1 cells [1]; pJF1576, CD-Fusion w/o Pro + 0.25 mM Pro + 10 µg/ml Puromycin",79%
same,Viability on day 21 post-transfection,"CHO-K1 cells [1]; pJF1579, CD-Fusion + 10 µg/ml Puromycin",98.8%
same,Viability on day 15 post-transfection,CHO-K1 cells [1]; [8],86.6%
same,Viability on day 22 post-transfection,CHO-K1 cells [1]; [8],98.6%
same,Viability on day 22 post-transfection,"CHO-K1 cells [1]; pJF2222, CD-Fusion + 10 µg/ml Puromycin",98.7%
same,Viability profile,"CHO-K1 cells [2]; Day 0 after inoculation, pJF1576, selected in CD Fusion + 10 µg/ml Puromycin, non-selecting conditions",98.7%
same,Viability profile,"CHO-K1 cells [2]; Day 0 after inoculation, pJF1576, selected in CD Fusion + 10 µg/ml Puromycin, selective conditions",92.8%
same,Viability profile,"CHO-K1 cells [2]; Day 0 after inoculation, pJF1576, selected in CD-Fusion w/o Pro + 0.25 mM Pro + 10 µg/ml Puromycin, non-selecting conditions",99.0%
same,Productivity profile,CHO-K1 cells [2]; [9],6.9 mg/L
same,Productivity profile,"CHO-K1 cells [2]; Day 2 after inoculation, pJF1576, selected in CD Fusion + 10 µg/ml Puromycin, selective conditions",10.9 mg/L
same,Productivity profile,CHO-K1 cells [2]; [10],11.2 mg/L
same,Viability profile,CHO-K1 cells [2]; [9],99.0%
same,Viable cell density profile,CHO-K1 cells [2]; [9],"7,7E+05 VCD/ml"
same,Viability profile,CHO-K1 cells [2]; [10],99.1%
same,Viable cell density profile,CHO-K1 cells [2]; [10],"8,3E+05 VCD/ml"
same,Viability profile,CHO-K1 cells [2]; [11],98.4%
same,Viable cell density profile,CHO-K1 cells [2]; [11],1.7E+06 VCD/ml
same,Productivity profile,CHO-K1 cells [2]; [12],15.1 mg/L
same,Productivity profile,"CHO-K1 cells [2]; Day 4 after inoculation, pJF1576, selected in CD Fusion + 10 µg/ml Puromycin, selective conditions",27.6 mg/L
same,Productivity profile,CHO-K1 cells [2]; [13],24.1 mg/L
same,Viability profile,CHO-K1 cells [2]; [12],99.7%
same,Viable cell density profile,CHO-K1 cells [2]; [12],"6,2E+06 VCD/ml"
same,Viability profile,CHO-K1 cells [2]; [13],99.8%
same,Viable cell density profile,CHO-K1 cells [2]; [13],"5,4E+06 VCD/ml"
same,Viability profile,CHO-K1 cells [2]; [14],99.1%
same,Viable cell density profile,CHO-K1 cells [2]; [14],7.1E+06 VCD/ml
same,Productivity profile,CHO-K1 cells [2]; [15],43.3 mg/L
same,Productivity profile,CHO-K1 cells [2]; [16],60.5 mg/L
same,Productivity profile,CHO-K1 cells [2]; [17],60.6 mg/L
same,Viability profile,CHO-K1 cells [2]; [15],98.7%
same,Viable cell density profile,CHO-K1 cells [2]; [15],"1,2E+07 VCD/ml"
same,Viability profile,CHO-K1 cells [2]; [16],97.7%
same,Viable cell density profile,CHO-K1 cells [2]; [16],1.1E+07 VCD/ml
same,Viability profile,CHO-K1 cells [2]; [17],97.8%
same,Viable cell density profile,CHO-K1 cells [2]; [17],"1,0E+07 VCD/ml"
same,Productivity profile,CHO-K1 cells [2]; [18],61.5 mg/L
same,Productivity profile,CHO-K1 cells [2]; [19],92.5 mg/L
same,Viability profile,CHO-K1 cells [2]; [18],43.9%
same,Viable cell density profile,CHO-K1 cells [2]; [18],"5,8E+06 VCD/ml"
same,Viability profile,CHO-K1 cells [2]; [19],58.1%
same,Viable cell density profile,CHO-K1 cells [2]; [19],"6,2E+06 VCD/ml"
same,Batch titer day 7,"CHO-K1 cells [2]; pJF1576, selected in CD Fusion + 10 µg/ml Puromycin, non-selecting conditions",145 mg/L
same,Batch titer day 7,"CHO-K1 cells [2]; pJF1576, selected in CD-Fusion w/o Pro + 10 µg/ml Puromycin, non-selecting conditions",198 mg/L
same,Batch titer day 7,"CHO-K1 cells [2]; pJF1576, selected in CD-Fusion w/o Pro + 0.25 mM Pro + 10 µg/ml Puromycin, non-selecting conditions",164 mg/L
same,Batch titer day 7,"CHO-K1 cells [2]; pJF1577, selected in CD Fusion + 10 µg/ml Puromycin, non-selecting conditions",174 mg/L
same,Batch titer day 7,"CHO-K1 cells [2]; pJF1577, selected in CD-Fusion w/o Pro + 10 µg/ml Puromycin, non-selecting conditions",154 mg/L
same,Batch titer day 7,"CHO-K1 cells [2]; pJF1577, selected in CD-Fusion w/o Pro + 0.25 mM Pro + 10 µg/ml Puromycin, non-selecting conditions",127 mg/L
